Legend:
[1] = Inhibition of synthetic melanin polymerization after 30 to 60 mins by UV-vis spectroscopic analysis; assay type: functional
[2] = Inhibition of synthetic melanin polymerization at 2 mM after 30 to 60 mins by UV-vis spectroscopic analysis relative to control; assay type: functional; details: values are per cent of control

Compound | IC50 [1] [mM] | residual activity [2] [%]
OB(O)c1ccc(F)cc1 | 1.84 | 49.7
COc1ccc(B(O)O)cc1 | 6.2 | 66.1
OB(O)c1ccccc1 [PHENYLBORONIC ACID] | 1.84 | 51.7
OB(O)c1ccc(Cl)cc1 | 1.31 | 41.2
Cc1ccc(B(O)O)cc1 [TOLYL BORONIC ACID] | 4.45 | 62.8
N#Cc1ccc(B(O)O)cc1 | 0.59 | 19.4
OB(O)c1ccc(C(F)(F)F)cc1 | 0.8 | 26.9
O=[N+]([O-])c1ccc(B(O)O)cc1 | 0.55 | 21.5
OB(O)c1ccc(Br)cc1 | 1.03 | 37.7
CC(=O)c1ccc(B(O)O)cc1 | 0.69 | 30.5

From ChEMBL document CHEMBL1208734, “Aryl boronic acid inhibition of synthetic melanin polymerization” (Bioorg Med Chem Lett, 2010)
